# Source: patent publication US8211885B2, “Cyclic indole-3-carboxamides, their preparation and their use as pharmaceuticals” (Sanofi-Aventis, priority 2008, dated 2012)
# Target: T1, Recombinant human renin (Homo sapiens, UniProt P00797)
# T1 construct: purchased Cayman 10006217
# T1 sequence (P00797 67-406): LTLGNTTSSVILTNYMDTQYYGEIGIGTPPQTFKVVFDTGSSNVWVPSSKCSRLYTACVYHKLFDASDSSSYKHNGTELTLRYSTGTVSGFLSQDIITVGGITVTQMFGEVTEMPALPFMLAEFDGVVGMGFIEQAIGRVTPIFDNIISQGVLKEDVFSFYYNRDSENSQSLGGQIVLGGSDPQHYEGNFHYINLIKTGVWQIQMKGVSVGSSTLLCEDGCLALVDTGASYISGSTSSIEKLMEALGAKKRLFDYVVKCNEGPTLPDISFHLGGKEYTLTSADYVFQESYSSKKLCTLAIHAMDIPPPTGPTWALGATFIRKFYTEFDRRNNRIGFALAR
# Assay: Inhibition of renin (fluorogenic peptide substrate)
# Assay type: biochemical
# Conditions: not given
# Method: Recombinant human renin (Cayman, no. 10006217) at a concentration of 5 nM was incubated with the test compounds at various concentrations and the synthetic substrate Dabcyl-γ-Abu-[…]EDANS (Bachem, no. M-2050; Dabcyl means the 4-(4-dimethylamino-phenylazo)-benzoyl group and EDANS means the amide with 5-[(2-aminoethyl)amino]-naphthalene-1-sulfonic acid) at a concentration of 10 μM for 2 h at room temperature in 0.05 M Tris buffer (pH 8) containing 0.1 M NaCl, 2.5 mM EDTA and 1.25 mg/ml bovine serum albumin. The increase in fluorescence, which is due to fluorescence resonance energy transfer, was recorded at an excitation wavelength of 330 nm and an emission wavelength of 485 nm in a microplate spectrofluorometer. Inhibitory concentrations IC50 were calculated from the percentage of inhibition of renin activity as a function of the concentration of the test compound.
row,SMILES,IC50 [nM]
1,"CN(c1ccccc1)c1c(C(=O)N2CCNCC2)c2ccccc2n1-c1ccccc1 [Example 3, [2-(Methyl-phenyl-amino)-1-phenyl-1H-indol-3-yl]-piperazin-1-yl-methanone]",3200

# Same assay, conditions: renin 5 nM, substrate Dabcyl-γ-Abu-[…]-EDANS 10 μM, 2 h room temperature, Tris buffer pH 8; compounds tested as the obtained salt; read-out: IC50 values for inhibition of renin (fluorogenic peptide substrate)
row,SMILES,IC50 [nM]
1,"O=C(c1c(Oc2ccccc2)n(-c2ccccc2)c2ccccc12)N1CCCNCC1 [Example 5, Perhydro-1,4-diazepin-1-yl-(2-phenoxy-1-phenyl-1H-indol-3-yl)-methanone]",3400
2,"Cc1ccc(F)cc1Oc1c(C(=O)N2CCNCC2)c2ccccc2n1C1C=CCCC1 (centres unmarked) [Example 22, [1-Cyclohex-2-enyl-2-(5-fluoro-2-methyl-phenoxy)-1H-indol-3-yl]-piperazin-1-yl-methanone]",7.2
3,"O=C(c1c(Oc2ccccc2)n(-c2ccccc2)c2ccccc12)N1CCNC(CO)C1 (centres unmarked) [Example 24, (3-Hydroxymethyl-piperazin-1-yl)-(2-phenoxy-1-phenyl-1H-indol-3-yl)-methanone]",1600
4,"Cc1ccc(F)cc1Oc1c(C(=O)N2CCNCC2)c2ccc(OCC(=O)O)cc2n1-c1ccccc1 [Example 30, [2-(5-Fluoro-2-methyl-phenoxy)-1-phenyl-3-(piperazine-1-carbonyl)-1H-indol-6-yloxy]-acetic acid]",130
5,Cc1ccccc1Sc1c(C(=O)N2CCNCC2)c2ccccc2n1-c1ccccc1 [Example 108],71
6,Cc1ccccc1Cc1c(C(=O)N2CCNCC2)c2ccccc2n1-c1ccsc1 [Example 113],230
7,O=C(c1c(Oc2ccccc2)n(-c2ccccc2)c2ccccc12)N1CCNCC1Cc1ccccc1 (centres unmarked) [Example 126],4500
